Assays:
Type in all cases: physicochemical
[1] = Compatibility of surfactant with diammonium glyphosate concentrate (no phase separation, 50° C., 1 week); conditions: 50° C. oven 1 week; for Compatible w/31% a.e. diammonium glyphosate at 10 wt % loading: 31 wt. % a.e. diammonium glyphosate/10 wt. % surfactant; for Compatible w/37% a.e. diammonium glyphosate at 12 wt % loading: 37 wt. % a.e. diammonium glyphosate/12 wt. % surfactant
Method: For the 31 wt. % a.e. NH4^+glyphosate/10 wt. % surfactant compositions: • 1.48 g of 41.9 wt % a.e. aqueous glyphosate diammonium (1.7 eq) salt was weighed into a vial. To the same vial was added 0.2 g of surfactant and 0.32 g deionized water. The remainder of the protocol is the same as that described for the 31 wt % potassium glyphosate samples. The surfactants identified in Table 4 that were compatible at the 31% a.e. ammonium/10 wt. % surfactant loading are indicated in Table 5 below.
For the 37 wt. % a.e. NH4^+glyphosate/12 wt. % surfactant compositions: • 1.76 g of 41.9 wt % a.e. aqueous glyphosate diammonium (1.7 eq) salt was weighed into a vial. To the same vial was added […]. The remainder of the protocol is the same as that described for the 31 wt % potassium glyphosate samples. The surfactants identified in Table 4 that were compatible at the 37% a.e. ammonium/12 wt. % surfactant loading are indicated in Table 5 below.

[2] = Compatibility of surfactant with potassium glyphosate concentrate (no phase separation, 50° C., 1 week); conditions: 50° C. oven 1 week; for Compatible w/37% a.e. K + glyphosate at 12 wt % loading: 37 wt. % a.e. potassium glyphosate/12 wt. % surfactant; for Compatible w/45% a.e. K + glyphosate at 15% wt loading: 45 wt. % a.e. potassium glyphosate/15 wt. % surfactant
Method: For the 31 wt. % a.e. potassium glyphosate/10 wt. % surfactant compositions: 1.550 g of 40 wt. % a.e. aqueous glyphosate potassium salt solution was weighed into a vial. To the same vial, 0.200 g of surfactant was added. Enough deionized water was then added to the contents to bring the total weight to 2.000g. The mixture was stirred for 2 hours at room temperature and checked to see if a solution had been formed. If a solution was present, the test vial was allowed to stand at room temperature overnight. If a solution was still present, the test vial was placed in a 50° C. oven for 1 week. If no phase separation had occurred in one week, the surfactant being tested was considered “compatible.” All of the surfactants identified in Table 4 were compatible at the 31% a.e. potassium/10 wt. % surfactant loading.
For the 37 wt. % a.e. potassium glyphosate/12 wt. % surfactant compositions: 41.1 g of 45 wt. % a.e. aqueous glyphosate potassium salt was weighed to a container. To the same container was added 6.0 g of surfactant and 2.9 g deionized water for a total weight of 50.0 g. The remainder of the protocol is the same as that described for the 31 wt. % samples. The surfactants identified in Table 4 that were compatible at the 37% a.e. potassium/12 wt. % surfactant loading are indicated in Table 5 below.
For the 40 wt. % a.e. potassium glyphosate/10 wt. % surfactant compositions: 1.79 g of 45 wt. % a.e. aqueous glyphosate potassium salt was weighed into a vial. To the same vial was added 0.2 g of surfactant. The remainder of the protocol is the same as that described for the 31 wt. % samples. The surfactants identified in Table 4 that were compatible at the 40% a.e. potassium/10 wt. % surfactant loading are indicated in Table 5 below.
For the 45 wt. % a.e. potassium glyphosate/15 wt. % surfactant compositions: 1.100 g of solid mono potassium glyphosate was weighed into a vial. To the same vial was added 0.300 g surfactant. Enough deionized water was added to the vial to bring the final weight to 2.000 g. The remainder of the protocol is the same as that described for the 31 wt. % samples. The surfactants identified in Table 4 that were compatible at the 45% a.e. potassium/[…] are indicated in Table 5 below.

[3] = Birefringence test for anisotropic aggregates on wax-coated slide; design: key: Y is yes; N is no; conditions: surfactant in IPA glyphosate formulation
Method: To determine whether a herbicidal formulation comprising glyphosate or a salt or ester thereof and a surfactant forms anisotropic aggregates on the foliage of a plant comprising the surfactant, the following birefringence testing procedure may be utilized.
First, a wax-coated slide is prepared. A preferred wax for preparing the slide is a blend of carnauba wax and beeswax in a weight/weight ratio of approximately 10:1, respectively. A clear wax mixture is prepared consisting of about 5% carnauba wax and about 0.5% beeswax in isopropanol, and is maintained at a temperature of approximately 82° C. The end of a glass 2.4 cm×7.2 cm microscope slide is immersed perpendicularly in the wax mixture to a depth of approximately one-third of the length of the slide. After about 10 to 15 seconds, the slide is very slowly and steadily withdrawn from the wax mixture and allowed to cool, leaving a wax layer deposited on both faces of the slide.
Visual examination of the slide can give a preliminary indication of the thickness and uniformity of the wax coating. If imperfections are evident the slide is rejected. […] Further evaluation of the acceptability of the wax-coated slide for the test is done by examining the slide under a microscope. The slide is selected for use in the test if, on microscopic examination using a 4.9× objective, the wax coating is uniformly thick and there is uniform density of wax particles across the slide.
The next stage in the procedure is to conduct the test.
The following instrumentation, or equivalent, items are required or useful for the test procedure: • Nikon SMZ-10A stereoscopic microscope equipped for polarized light observation, photomicrography, and video observation and recording. • 3CCD MTI camera. • Diagnostic Instruments 150 IL-PS power supply. • Sony Trinitron color video monitor, model PVM-1353MD. • Mitsubishi time-lapse video cassette recorder, model HS-S5600. • Hewlett Packard Pavillion 7270 computer, with Windows 95 and Image-Pro • Plus version 2.0 electronic imaging program installed. • Hewlett Packard Deskjet 870Cse printer.
For testing, a wax-coated slide, prepared and selected as described above, is positioned on the microscope stage, with the system set to provide transmitted light, both straight and polarized. A 1 microliter drop of the sample to be tested is applied to the wax surface using a thoroughly cleaned 1 microliter Hamilton syringe. This and subsequent operations are followed through the microscope at 4.9× objective. Duplicate or triplicate tests are done for each composition. Numerous tests can be conducted simultaneously on a single slide. Progression of change in the microscopic appearance of the sample is observed through the microscope and recorded at designated time intervals. Useful intervals are 1 minute, 10 minutes, 2 hours and greater than 24 hours after application of the drop to the wax surface. Observations can also be made at intermediate times to capture possible significant transitions occurring at such times.
The temperature of the wax layer tends to increase with prolonged exposure to the microscope light. […] However, in some cases temperature does affect the outcome of the test and in such cases it is preferred to illuminate the sample only for the short periods necessary to make observations, so that the temperature of the wax layer remains close to ambient temperature.
At dark field (polarized light) the wax layer is observed for birefringence, and at light field the character of the drop surface is observed, at each time interval. The following records are preferably made: • birefringence (y/n); • time of initial appearance of birefringence; • character of the birefringence; • appearance of drop surface as composition “dries”; • degree of spread of the drop; • effects of temperature (warming of the slide) if any; • other noticeable changes.

[4] = Specific gravity (Mettler DA-300 Density/Specific Gravity Meter); conditions: 20/15.6° C.; 30% a.e. by weight glyphosate monobasic salt solutions
Method: Specific gravities are measured using a Mettler DA-300 Density/Specific Gravity Meter.

Compatible w/31% a.e. diammonium glyphosate at 10 wt % loading [1]	Compatible w/37% a.e. K + glyphosate at 12 wt % loading [2]	AA (anisotropic aggregate) [3]	Compound	also measured
		Y	CCCCCCCC/C=C\CCCCCCCC(=O)O [oleic acid]	
		N	CCCCCCCCCCN(C)C [drawing 146 w=10]	
		N	CCCCCCCC(=O)O [caprylic acid]	
		Y	CCCCCCCCCCCCCCCC(=O)O [palmitic acid]	
Yes	No		CCCCCCCCCCCC[N+](C)(C)CC(O)C(O)C(O)C(O)CO (centres unmarked) [XX]	Compatible w/37% a.e. diammonium glyphosate at 12 wt % loading [1]: No
Yes	No		CCCCCCCCCCCCCCCCCC[N+](C)(C)CC(O)C(O)C(O)C(O)CO (centres unmarked) [YY]	Compatible w/37% a.e. diammonium glyphosate at 12 wt % loading [1]: No
		Y	CCCCCCCCCCCCOS(=O)(=O)[O-].[Na+] [sodium lauryl sulfate]	
		Y	CCCCCCCCCCCCCCCCCC(=O)O [stearic acid]	
	Yes		CN(CCCCCCCCCCCCN(C)CC(O)C(O)C(O)C(O)CO)CC(O)C(O)C(O)C(O)CO (centres unmarked) [Surfactant ZZ, 1,12 methylaminoglucitoldodecane]	Compatible w/45% a.e. K + glyphosate at 15% wt loading [2]: Yes
		N	laureth-3 phosphate	

Continued, compound first:

Compound	Compatible w/31% a.e. diammonium glyphosate at 10 wt % loading [1]	Compatible w/37% a.e. K + glyphosate at 12 wt % loading [2]	AA (anisotropic aggregate) [3]	also measured
CCCCCCCCNC(CO)(CO)CO [EEE]	Yes	Yes		Compatible w/37% a.e. diammonium glyphosate at 12 wt % loading [1]: Yes; Compatible w/45% a.e. K + glyphosate at 15% wt loading [2]: No
CCCCCCCCCCN(C)CCCN(C)CCCCCCCCCC [Gemini 10-3-10]			Y	
CCCCCCCCCCCCN(C)CC(O)C(O)C(O)C(O)CO (centres unmarked) [RR]	Yes	Yes		Compatible w/37% a.e. diammonium glyphosate at 12 wt % loading [1]: Yes; Compatible w/45% a.e. K + glyphosate at 15% wt loading [2]: Yes
CCCN.O=C(O)CNCP(=O)(O)O				Specific Gravity [4]: 1.1429
CCN.O=C(O)CNCP(=O)(O)O				Specific Gravity [4]: 1.1599
CCCCCCCCCCCCCCCCOCCOCCOCCOCCOCCOCCOCCOCCOCCOCCNCCCN [KKK]		Probably		Compatible w/45% a.e. K + glyphosate at 15% wt loading [2]: Yes, but minor
CCCCCCCCCCN(C)CCCCN(C)CCCCCCCCCC [Gemini 10-4-10]			Y	
CCCCCCCCCCCCCCCCCCN(C)CCOCCOCCOCCOCCOCCOCCOC [Surfactant C, α-methyl-ω-(N-methyloctadecylamino)poly(oxy-1,2-ethanediyl)]	No			
CCCCCCCCCCCCCCCCOCCOCCOCCOCCOCCOCCOCCOCCOCCOCCOCCOCCOCCOCCOCCOCCOCCOCCOCCOCCN(C)CC(O)C(O)C(O)C(O)CO (centres unmarked) [PPP]	No	No		Compatible w/37% a.e. diammonium glyphosate at 12 wt % loading [1]: No
CN [methylammonium]				Specific Gravity [4]: 1.1667
CCCCCCCCCCCCCCCCOCCOCCOCCOCCOCCOCCOCCOCCOCCOCCN(C)CC(O)C(O)C(O)C(O)CO (centres unmarked) [OOO]	No	Probably		Compatible w/37% a.e. diammonium glyphosate at 12 wt % loading [1]: Yes
CCCCC(CC)COP(=O)(O)O (centres unmarked) [2-ethylhexyl phosphate]			N	
ammonium				Specific Gravity [4]: 1.1814
CCCCCCCCCCCCCCCCOCCOCCOCCOCCOCCOCCOCCOCCOCCOCCOCCOCCOCCOCCOCCOCCOCCOCCOCCOCCN(C)CC(O)CO (centres unmarked) [QQQ]	No	No		Compatible w/37% a.e. diammonium glyphosate at 12 wt % loading [1]: No
CCCCCCCCCCCCCCCCOCCOCCOCCOCCOCCOCCOCCOCCOCCOCCN(C)CCN(C)C [MMM]	Yes	Yes		
CC(C)N.O=C(O)CNCP(=O)(O)O [isopropylammonium (IPA)]				Specific Gravity [4]: 1.1554
CCCCCCCCCCCC[N+](C)(C)C [VVV]	Yes			Compatible w/37% a.e. diammonium glyphosate at 12 wt % loading [1]: No
NCCO.O=C(O)CNCP(=O)(O)O [monoethanolammonium (MEA)]				Specific Gravity [4]: 1.2357
CCCCCCCCCCCCNC(CO)(CO)CO [FFF]	No			Compatible w/37% a.e. diammonium glyphosate at 12 wt % loading [1]: No
CCCCCCCCCCN(C)CCN(C)CCCCCCCCCC [Gemini 10-2-10]			Y	
CCCCCCCCCCCCCCCCN(C)CCN(C)CCCCCCCCCCCCCCCC			Y	
C[S+](C)C.O=C(O)CNCP(=O)([O-])O [trimethylsulfonium (TMS)]				Specific Gravity [4]: 1.1904
CCCCCCCCN(CCCN(CCCCCCCC)CC(O)C(O)C(O)C(O)CO)CC(O)C(O)C(O)C(O)CO (centres unmarked) [Surfactant CCC, 1,8 hexylaminoglucitol octane]		Yes		Compatible w/45% a.e. K + glyphosate at 15% wt loading [2]: Yes
CCCCCCCCCCCCOCCOCCOCCOCCN(C)C [HHH]	No			
